Experimental data taken from patent US11603380B2 (Centre national de la recherche scientifique, priority 2018, dated 2023).
Read-outs that look alike come from different tables or passages of the source.

What was measured:
[1] = Weight and condition of mice during treatment in the SCID-Hu model; conditions: for change in weight during the treatment phase: first study, Days 0-8, 5 26 mg/kg sc, cidofovir 10 mg/kg ip
[2] = test system: VZV-BAC-Luc strain (wild type); test: microbe, parasite or virus in culture; assay type: cell-based, varicella zoster virus; conditions: read-out: approximate EC50, wild type VZV
[3] = test system: herpes simplex virus 1 (HSV-1) (KOS); test: microbe, parasite or virus in culture; assay type: cell-based; conditions: read-out: EC50 HSV-1 (KOS)
Vaccinia Virus = test: microbe, parasite or virus in culture; assay type: cell-based; conditions: read-out: EC50 Vaccinia Virus
[4] = test system: human cytomegalovirus (HCMV) (AD-169); test: microbe, parasite or virus in culture; assay type: cell-based; conditions: read-out: EC50 HCMV (AD-169)
in vitro = conditions: human, Cytotoxicity CC50
[5] = test system: VZV-BAC-Luc in human fetal skin; test: Human skin organ culture model of VZV replication; assay type: cell-based, varicella zoster virus; conditions: for VZV yield in skin organ culture compared to vehicle: Day 11, cidofovir 5 μM, 5 at 1 and 5 μM (p<0.0001 vs vehicle)
HSV-2 (G) = test: microbe, parasite or virus in culture; assay type: cell-based, herpes simplex virus 2; conditions: read-out: EC50 HSV-2 (G)
[6] = test system: human cytomegalovirus (HCMV) (Davis); test: microbe, parasite or virus in culture; assay type: cell-based; conditions: read-out: EC50 HCMV (Davis)
HSV-1 (KOS ACV) TK− = test: microbe, parasite or virus in culture; assay type: cell-based, herpes simplex virus 1
[7] = test system: VZV-BAC-Luc TK− strain (ACV^R); test: microbe, parasite or virus in culture; assay type: cell-based, varicella zoster virus; conditions: read-out: approximate EC50, ACV^R VZV
VZV-BAC-Luc = test: SCID-Hu mouse model of VZV replication (human fetal skin xenografts); assay type: in vivo, CB.17 scid/beige male mice; conditions: for VZV spread / virus yield (Total Flux) vs Vehicle: once daily Days 0-8, 5 26 mg/kg subcutaneous, cidofovir 10 mg/kg intraperitoneal, yield compared Day 9, p=0.0051
Protocol: SCID-Hu mouse model of VZV replication. CB.17 scid/beige male mice (Charles River) were implanted subcutaneously with human fetal skin (the same type of specimens used for the skin organ culture assay). After 3-4 weeks engraftment, the skin implants were inoculated with VZV-BAC-Luc or VZV-ORF57-Luc. The mice were divided into groups (N=10-13) for treatment or controls. The positive control antiviral drug was cidofovir, 10 mg/kg/day given by intraperitoneal injection. The negative control was the vehicle Cremophor-DMSO-saline (1:1:8) given by subcutaneous injection. The treatment groups were 5 in Cremophor-DMSO-saline, 26, 13, or 6.5 mg/kg/day, given by subcutaneous injection. Treatment began 2 hours or 3 days after the inoculation surgery and continued daily or alternating days for up to 9 days. The mice were scanned in the IVIS-200 instrument daily from Day 1-10. The mice were weighed before the start of the study and daily during the treatment phase.
Statistical analysis: The results were analyzed for statistical significance by Student's t test or by ANOVA and Dunnett's post hoc test of multiple comparisons (GraphPad Prism).
CB.17 scid/beige male mice were implanted subcutaneously with human fetal skin (the same type of specimens used for the skin organ culture assay). After 3-5 weeks engraftment period, the skin implants were inoculated with VZV-BAC-Luc. The mice were divided into 3 groups of 10-13 mice: vehicle (Cremophor-DMSO-saline 1:1:8), cidofovir 10 mg/kg in saline, and 5 26 mg/kg in Cremophor-DMSO-saline. 5 at 26 mg/kg is the molar equivalent dose to cidofovir 10 mg/kg. Cidofovir was given by the intraperitoneal route, once daily, from Days 0-8. Vehicle and 5 were given by the subcutaneous route, once daily, from Days 0-8. The mice were scanned in the IVIS-200 instrument daily from Day 1-9 and the Total Flux values indicated VZV-infected cells in the skin xenografts (FIG. 3). […] VZV grew normally in the Vehicle group.
In addition, a dose-ranging and delayed treatment assay was included to determine the lowest effective dose (FIGS. 5A and 5B). As before, 5 26 mg/kg was given once daily, by the subcutaneous route, from Days 0-6. This group was compared to Vehicle (Cremophor-DMSO-saline). In the dose ranging assay, 5 high dose (26 mg/kg), medium dose (13 mg/kg) or low dose (6.5 mg/kg) was given once daily, by the subcutaneous route, from Days 3-9. The treatment phase was delayed to Day 3 because this is more clinically relevant.

HBV = test: Anti-HBV activity, Huh7 cells transfected with pHBV1.1×, intra-capsid viral DNA by real-time PCR; assay type: cell-based, Hepatitis B virus; conditions: 7 days, read-out: IC50 (HBV replication) (converted)
Equine Herpes V 4 = test: Virus infection assay, Equine Herpes V 4, permissive cells; assay type: cell-based
Protocol: (§1) 2. Virus Infection (Protocols for: Adeno Virus, Cytomegalo Virus, Poxvirus, Myxo Virus, Equine Herpes Virus)
(§2) Cognate permissive cell lines were used for each virus infection assay.
(§3) Cells were grown in DMEM without phenol red (Sigma-Aldrich) 10% SVF, Pen-strep, 1× sodium pyruvate, 1× Glutamax.
(§4) Virus infection was carried out on permissive cells seeded in either in 96 wells plate or in 6 well plates, in duplicate at one or two MOI (multiplicity of infection) and 7 concentrations of LA6. • Day 0: cells seeded at 10 k per well in Corning Glass Bottom 96 well plates in 200 μl of DMEM without phenol red or 200 k in 6 well plates. • Day 1: cells were treated with LA6 (from 1 to 0.0037 μM by […] dilutions) in duplicate and were infected at different MOI according to the tested virus • Day 2 to day 7: cells were fixed with Formalin 10 min at room temperature. Cells were washed with 200 μL PBS and 100 μL PBS/Hoechst® 33342 (1/1000) per well. 96 well plates were kept at 4° C. in the dark until data acquisition Image acquisition and analysis for high content quantification was performed on a Thermo Cellomics Arrayscan™ VTI microscope using a modified compartmental analysis algorithm for fluorescent virus. For unmodified virus, ECP progression or plaque count was determined visually by double blind analysis.

[8] = test system: HSV-1, HSV-2, HSV-1 (TK−), VV, FHV; assay type: cell-based
Equine Herpes V 1 = assay type: cell-based, Equine herpes virus
Vaccinia Virus TK− = assay type: cell-based
Adeno virus = test: Virus infection assay, Adeno virus, permissive cells; assay type: cell-based
Protocol: as §1, §2, §3, §4

HEL cells = conditions: read-out: Cytotoxicity CC50; concentration reducing cell growth by 50%; HCMV/VZV table
Myxomatosis Virus (MYXV) = assay type: cell-based
[9] = test system: varicella-zoster virus (VZV) TK+ (OKA); test: microbe, parasite or virus in culture; assay type: cell-based; conditions: read-out: EC50 VZV TK+ (OKA)
Feline Herpes Virus = test: organism not typed; assay type: cell-based; conditions: read-out: EC50 Feline Herpes Virus
[10] = Human alphaherpesvirus 3, ARPE-19, 72 h
[11] = ARPE-19 cells, 3 days, bioluminescence, estimated by interpolation

Nc1ccn(C[C@@H](CO)OCP(=O)(O)O)c(=O)n1 [Cidofovir, reference compound]
change in weight during the treatment phase [1]: moderate weight loss
EC50 [2, 10]: ~2500 nM
EC50 ([3]; Human alphaherpesvirus 1, HEL): 4500 nM
EC50 (Vaccinia Virus; Orthopoxvirus vaccinia, HEL): 112000 nM
EC50 ([4]; Human betaherpesvirus 5, AD169, HEL): 1200 nM
CC50 (in vitro): > 100000 nM
VZV yield in skin organ culture compared to vehicle [5]: effective
EC50 (HSV-2 (G); Human alphaherpesvirus 2, HEL): 1000 nM
Cytotoxicity MCC (HEL cell cultures; human): >100 µM
EC50 ([6]; Human betaherpesvirus 5, HEL): 1000 nM
EC50 (HSV-1 (KOS ACV) TK−; Human alphaherpesvirus 1, read-out: EC50 HSV-1 (KOS ACV) TK−): 2800 nM
EC50 [7, 10]: ~2500 nM
VZV spread / virus yield (Total Flux) vs Vehicle (VZV-BAC-Luc): prevented VZV spread

[(E)-2-[(2,6-diaminopyrimid in-4-yl)oxymethyl]-4-[3-hexadecoxypropoxy (isopropoxycarbonyloxymethoxy)phosphoryl]but-2′-enyl]acetate [Compound 13]
IC50 (HBV): 1600 nM

[(Z)-2-[(2,6-diaminopyrimidin-4-yl)oxymethyl]-4-[3-hexadecoxypropoxy (isopropoxycarbonyloxymethoxy)phosphoryl]but-2′-enyl]acetate [Compound (5)]
change in weight during the treatment phase [1]: did not cause weight loss
overt toxicity (weight and condition of the mice) ([1]; repeat and dose-ranging study, 6.5-26 mg/kg sc): did not cause overt toxicity
EC50 [2, 11]: ~10 nM
EC50 [3]: 43 ± 37 nM
EC50 (Vaccinia Virus): 115 ± 110 nM
EC50 [4]: 1790 nM
EC50 (Equine Herpes V 4): < 125 nM
IC50 (HBV): 400 nM
VZV yield in skin organ culture compared to vehicle [5]: effective
concentration preventing VZV spread in skin ([5]; skin organ culture): ≥ 1 µM
activity level against HSV-1, HSV-2, HSV-1 (TK−), VV, FHV [8]: micromolar and sub-micromolar activities
EC50 ([8]; read-out: EC50 against both tested viruses): < 350 nM
EC50 (Equine Herpes V 1): < 125 nM
EC50 (Vaccinia Virus TK−; read-out: EC50 Vaccinia Virus TK−): < 30 nM
EC50 (Vaccinia Virus TK−; read-out: EC50 vaccicnia virus TK-): < 30 nM
EC50 (HSV-2 (G)): 15 nM
EC50 (Adeno virus): < 37 nM
EC50 (Adeno virus; text statement): < 37 nM
Cytotoxicity MCC (HEL cell cultures): 60 µM
EC50 [6]: 700 nM
CC50 (HEL cells): 660 nM
EC50 (HSV-1 (KOS ACV) TK−; read-out: EC50 HSV-1 (KOS ACV) TK−): 8 ± 2 nM
EC50 [7, 11]: ~10 nM
EC50 (Myxomatosis Virus (MYXV)): 51 nM
EC50 [9]: 3.5 nM
antiviral effect, delayed treatment, low dose (VZV-BAC-Luc; 6.5 mg/kg once daily subcutaneous Days 3-9, yield Day 10 p=0.029): equally effective
antiviral effect, delayed treatment, medium dose (VZV-BAC-Luc; 13 mg/kg once daily subcutaneous Days 3-9, yield Day 10 p=0.029): equally effective
Virus yield on Day 7 vs Vehicle (VZV-BAC-Luc; 26 mg/kg once daily subcutaneous Days 0-6, p=0.008): significantly less than the Vehicle group
antiviral effect, delayed treatment, high dose (VZV-BAC-Luc; 26 mg/kg once daily subcutaneous Days 3-9, yield Day 10 p=0.029): also effective
VZV spread / virus yield (Total Flux) vs Vehicle (VZV-BAC-Luc): prevented VZV spread
low dose effectively preventing VZV spread (VZV-BAC-Luc; once daily subcutaneous Days 3-9): 6.5 mg/kg
EC50 (Feline Herpes Virus): 350 nM
